Results from patent publication US6800628B2, “N-substituted 4-((-4′-aminobenzoyl)-oxymethyl)-piperidines having gastric prokinetic properties” (Janssen Pharmaceutica N.V., priority 1996, dated 2004).

system: conscious dogs; experiment: Gastric emptying of an acaloric liquid test meal delayed by administration of lidamidine, in conscious dogs; assay type: in vivo, beagle dogs; conditions: gastric emptying of a liquid meal delayed by lidamidine in conscious dog; dose of 0.04 mg/kg of the test compound
From the text: “Gastric Emptying of an Acaloric Liquid Test Meal Delayed by […] of Lidamidine, in Conscious Dogs” Test
Female beagle dogs, weighing 7-14 kg, were trained to stand quietly in Pavlov frames. They were implanted with a gastric cannula under general anaesthesia and aseptic precautions. After a median laparatomy, an incision was made through the gastric wall in the longitudinal direction between the greater and the lesser curve, 2 cm above the nerves of Latarjet. The cannula was secured to the gastric wall by means of a double purse string suture and brought out via a stab wound at the left quadrant of the hypochondrium. Dogs were allowed a recovery period of at least two weeks. […]
In the 1 ml samples of the gastric contents, the glucose concentrations were measured on a Hitachi 717 automatic analyser by the hexokinase method (Schmidt, 1961).
Curves were fitted to the measurement points (glucose vs time) using weighed non-linear regression analysis. Gastric emptying was quantified as the time needed to empty 70% of the meal (t70%). The control emptying time was calculated as the mean t70% of the last 5 solvent experiments of the same dog. Acceleration of delayed gastric emptying (Δt) was calculated as the time difference between t70% compound and t70% solvent. To correct for variations in emptying rate between dogs, Δt was expressed as % of t70% solvent (Schuurkes et al, 1992).

| SMILES | Acceleration (Δt/t) |
| --- | --- |
| Cc1nccnc1NCCN1CCC(COC(=O)c2cc(Cl)c(N)c3c2OC(C)(C)C3)CC1 [Compound 6, [1-[2-[(3-methyl-2-pyrazinyl)amino]ethyl]-4-piperidinyl]methyl 4-amino-5-chloro-2,3-dihydro-2,2-dimethyl-7-benzofurancarboxylate] | −0.41 |

system: not given; experiment: not given; conditions: not given

| melting point | SMILES |
| --- | --- |
| 140 °C | COc1cc(N)c(Cl)cc1C(=O)OCC1CCN(CCCOc2ccc(F)cc2)CC1 [Compound 1, [1-[3-(4-fluorophenoxy)propyl]-4-piperidinyl]methyl 4-amino-5-chloro-2-methoxybenzoate] |

target: 5 HT4 receptor (Homo sapiens, UniProt Q13639); experiment: not given; conditions: stated for prior art compounds; cited from earlier work
Sequence (Q13639 whole entry): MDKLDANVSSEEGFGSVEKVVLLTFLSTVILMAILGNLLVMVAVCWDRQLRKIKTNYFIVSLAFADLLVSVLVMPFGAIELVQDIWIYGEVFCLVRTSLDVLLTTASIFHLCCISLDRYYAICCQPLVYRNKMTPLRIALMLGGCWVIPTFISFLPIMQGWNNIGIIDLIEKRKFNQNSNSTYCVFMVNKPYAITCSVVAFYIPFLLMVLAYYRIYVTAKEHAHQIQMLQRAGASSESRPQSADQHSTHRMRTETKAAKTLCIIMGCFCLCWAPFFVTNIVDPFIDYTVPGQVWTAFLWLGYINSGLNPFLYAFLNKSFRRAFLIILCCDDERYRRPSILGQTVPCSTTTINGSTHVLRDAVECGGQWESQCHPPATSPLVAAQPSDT

| SMILES | 5 HT4 receptor activity (agonistic / antagonistic) |
| --- | --- |
| Nc1c(Cl)cc(C(=O)OCC2CCN(Cc3cccnc3)CC2)c2c1OCCO2 [5-(1-(3-pyridylmethyl)-4-piperidinyl)methyl-8-amino-7-chloro-1,4-benzo-dioxancarboxylate] | 5 HT4 receptor antagonistic activity |
| CCCCN1CCC(OC(=O)c2cc(Cl)c(N)c3c2OCCO3)CC1 [8-amino-7-chloro-1,4-benzodioxan-5-(1-butyl-4-piperidinyl)carboxylate] | 5 HT4 receptor antagonistic activity |
| CCCCN1CCC(COC(=O)c2cc(Cl)c(N)c3c2OCCO3)CC1 [(1-butyl-4-piperidinyl)methyl 8-amino-7-chloro-1,4-benzodioxan-5-carboxylate] | 5 HT4 receptor antagonistic activity |
| CCCCN1CCC(COC(=O)c2cc(Cl)c(N)c3c2OCC3)CC1.Cl [(1-butyl-4-piperidinyl)methyl-4-amino-5-chloro-2,3-dihydrobenzo[b]furan-7-carboxylate hydrochloride] | 5 HT4 receptor agonistic activity |
| CCCCN1CCC(COC(=O)c2cc(Cl)c(N)c3c2OCCC3)CC1.Cl [(1-butyl-4-piperidinyl)methyl-5-amino-6-chloro-3,4-dihydro-2-H-1-benzopyran-8-carboxylate hydrochloride] | 5 HT4 receptor antagonistic activity |
| CCOC(=O)CCN1CCC(COC(=O)c2cc(Cl)c(N)c3c2OCCO3)CC1 [[1-(2-carbo-ethoxyethyl)-4-piperidinyl]methyl-8-amino-7-chloro-1,4-benzodioxan-5-carboxylate] | 5 HT4 receptor antagonistic activity |
| CC(O)CCN1CCC(COC(=O)c2cc(Cl)c(N)c3c2OCCO3)CC1 (stereo not drawn) [[1-(3-hydroxybutyl)-4-piperidinyl]methyl-8-amino-7-chloro-1,4-benzodioxan-5-carboxylate] | 5 HT4 receptor antagonistic activity |
